Consider 7 molecules from publication PMC6480424, “Hydrophobic Amines and Their Guanidine Analogues Modulate Activation and Desensitization of ASIC3” (International Journal of Molecular Sciences, 2019).

Structures are written as SMILES.

What all share (assay type): cell-based
The target in experiment [1] is T1, ASIC3 (acid-sensing ion channel 3) (Rattus norvegicus, UniProt O35240).
T1 construct: homomeric rat ASIC3 expressed in CHO cells
T1 sequence (O35240 1-533): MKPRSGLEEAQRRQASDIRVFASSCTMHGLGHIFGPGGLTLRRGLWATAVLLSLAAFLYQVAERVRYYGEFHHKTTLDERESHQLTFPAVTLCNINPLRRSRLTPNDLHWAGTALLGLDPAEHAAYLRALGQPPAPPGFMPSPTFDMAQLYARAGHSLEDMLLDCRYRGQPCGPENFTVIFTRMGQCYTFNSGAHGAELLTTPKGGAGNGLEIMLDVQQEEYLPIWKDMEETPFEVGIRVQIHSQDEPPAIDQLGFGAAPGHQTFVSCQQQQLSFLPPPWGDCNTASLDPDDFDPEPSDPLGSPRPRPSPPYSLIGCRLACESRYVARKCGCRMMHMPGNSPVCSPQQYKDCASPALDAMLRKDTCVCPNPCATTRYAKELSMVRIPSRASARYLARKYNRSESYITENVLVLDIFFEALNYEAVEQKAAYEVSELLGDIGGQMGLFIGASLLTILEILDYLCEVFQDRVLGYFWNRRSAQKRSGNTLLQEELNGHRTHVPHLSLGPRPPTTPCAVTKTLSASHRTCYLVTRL
Briefly: whole-cell patch clamp at […], acidic shift of activation. Background: Patch clamp records ionic current or voltage across a cell membrane.

The target of experiment [2] is T1, ASIC3 (acid-sensing ion channel 3). Briefly: whole-cell patch clamp, peak inhibition and sustained potentiation, on/tail currents.
The target is the same in experiment [3]. Description: whole-cell patch clamp, peak current inhibition at pH […].
The target is the same in experiment [4]. Description: whole-cell patch clamp, sustained current inhibition by […] at pH […]. Particulars: read-out: % inhibition at 0.5 mM.
For experiment [5] the target is unchanged. Briefly: whole-cell patch clamp, sustained current potentiation by […] at pH […]. The conditions noted are these: read-out: % potentiation at 0.5 mM.
Experiment [6] has the same target. Description: whole-cell patch clamp, sustained current inhibition at pH […].

Take `CN(C)CCC=C1c2ccccc2CCc2ccccc21` [amitriptyline]: the “whole-cell patch clamp at 500 μM, acidic shift of activation” value in experiment [1] is “IEM-2044 and amitriptyline have opposite effects on different channels, inducing an alkaline shift of activation on ASIC1a”. For `NCCC1(c2ccccc2)CCCCC1` [IEM-2044], the “whole-cell patch clamp, peak inhibition and sustained potentiation, on/tail curr” value in experiment [2] was 9-Aminoacridine and IEM-2044, which inhibit peak and potentiate the sustained component of the response. In experiment [3], `N=C(N)NCCC1(c2ccccc2)CCCCC1` [IEM-2195] registered an IC50 of 21 ± 15 µM.

Take `N=C(N)NC12CC3CC(CC(C3)C1)C2` [IEM-2151]: the inhibition at 500 µM in experiment [4] came to 29 ± 4%. As for `NC1c2ccccc2-c2ccccc21` [IEM-2117], in experiment [5], the activation at 500 µM was 498 ± 196%. `CC12CC3CC(C)(C1)CC(NC(=N)N)(C3)C2` [IEM-2163] returned an IC50 in experiment [6] of 117 ± 5.6 µM.

On to `Nc1c2ccccc2nc2ccccc12` [9AA, 9-aminoacridine], for which the “whole-cell patch clamp, peak inhibition and sustained potentiation, on/tail curr” value in experiment [2] was 9-Aminoacridine and IEM-2044, which inhibit peak and potentiate the sustained component of the response.

In general, IC50 refers to the midpoint of a concentration-inhibition curve. A high value points to weaker potency. In general, inhibition refers to the percentage by which the read-out fell short of the control.
